Laboratory results taken from US4185119A, “Antiallergic methods” (priority 1977, dated 1980).

Legend:
[1] = test system: P.C.A. reaction in Donryu strain rats; assay: Inhibition of P.C.A. reaction in Donryu strain rats, rat reaginic antiserum against egg albumin; assay type: in vivo; details: Donryu rat (Table 2-II)
Experimental: (a) Rat reaginic antiserum against egg albumin
A solution of egg albumin (2 mg) in B. pertussis-diphtheria-tetanus mixed vaccine (1 ml.) (made by Takeda Chemical Industries Ltd.) was mixed with an equal volume of incomplete adjuvant (made by Difco Laboratories) to give an emulsion. The emulsion was given subcutaneously in a single dose of 1 ml. divided equally (0.25 ml.) to the four foot pads of male S.D. (Sprague-Dawley) strain rats aged 8 weeks, each weighing about 300 g.
Five days after the administration, a solution of egg albumin (0.5 mg.) in B. pertussis-diphtheria-tetanus mixed vaccine (0.5 ml.) was further given intramuscularly in a single dose of 0.5 ml. divided equally (0.25 ml.) to 2 places of thigh of the same rats.
Three days after the second administration, blood samples were collected from femoral artery of the rats and allowed to stand at ambient temperature for 5 hours. The separated supernatant was centrifuged at 4° C. (10,000 r.p.m.× 1 hour). The antisera thus obtained were stored at -80° C. prior to use.
(§1) (b) Inhibitory effect on P.C.A. reaction in Donryu strain rat
(§2) The following tests were carried out in substantially the same manner as described in the above item (2)-(a).
(§3) (i) Test compound: N:methyllaurotetanine hydrochloride
(§4) Test animal: Male Donryu strain rats aged 8 weeks, weighing about 130 g.
(§5) Challenge: A normal saline (0.3 ml.) containing egg albumin (4.5 mg.) and Evans blue (1.5 mg.).
(§6) (ii) Test commpound: glaucine or boldine
(§7) Test animal: Male Donryu strain rats aged 8 weeks, weighing 140-150 g.
(§8) Challenge: the same as the above item (b)-(i).

[2] = test system: P.C.A. reaction in I.C.R. strain mice; assay: Inhibition test of P.C.A. reaction in I.C.R. strain mice, rat hyperimmune antiserum against egg albumin; assay type: in vivo; details: intraperitoneal, I.C.R. mouse (Table 3-II)
Experimental: (c) Inhibition test of P.C.A. reaction in I.C.R. (Institute of Cancer Research) strain mice
(i) Test compound: N-methyllaurotetanine hydrochloride
Fifteen male I.C.R. strain mice aged 7 weeks, weighing about 35 g were divided equally into 3 groups. Each of the groups was composed of 5 mice, (in case of intraperioneal administration of the test compound to the mouse, each of the groups was composed of […]).
Ten-hold diluted solution (0.05 ml.) of the rat hyperimmune antiserum against egg albumin was given intracutaneously to the depilated back of each mouse of Group I and Group II, respectively. On the other hand, a rat normal serum (0.05 ml.) was given intracutaneously to the depilated back of each mouse of Group III. Three hours after the administration, a normal saline (0.1 ml.) containing egg albumin (1.5 mg.) and Evans blue (0.5 mg.) was given intravenously to each mouse of Groups I-III in order to bring about P.C.A., respectively.
Beforehand, 3 hours and 1 hours before the admnistration to bring about P.C.A., a normal saline (0.3 ml.) containing the prescribed amount of N-methyllaurotetanine hydrochloride and carboxymethylcellulose (0.5%) was given orally or intraperitoneally to each mouse of Group I, and a normal saline (0.3 ml.) containing only carboxymethylcellulose (0.5%) was given orally or intraperitoneally to each mouse of Group II.
The procedure followed by the above, was carried out in substantially the same manner as described in the above item (2)-(a). […]

[3] = cited from earlier work
[4] = test system: P.C.A. reaction in Donryu strain rats; assay: Inhibition of P.C.A. reaction in Donryu strain rats, rat hyperimmune antiserum against egg albumin; assay type: in vivo; details: Donryu rat (Table 2-II)
Experimental: (b) Rat hyperimmune antiserum against egg albumin
A solution of egg albumin (20 mg.) in normal saline (1 ml.) was mixed with complete adjuvant (1 ml.) (made by Difco Laboratories) to given an emulsion. The emulsion was subcutaneously given in a single dose of 1 ml. divided equally (0.25 ml.) to the four pads of male S.D. strain rats aged 6 weeks, each weighing about 200 g. (The first immunization).
One week after the administration, an emulsion which was prepared by mixing a solution of egg albumin (10 mg.) in normal saline (1 ml.) with complete adjuvant (1 ml.) was further given subcutaneously (at 3 places) and intramuscularly (at 1 place) in a single dose of 1 ml. divided equally (0.25 ml.) to thigh of the same rats. (The second immunization).
Three weeks after the second administration, a solution of egg albumin (1 mg.) in normal saline (1 ml.) was further given intracutaneously in a single dose of 0.3 ml. divided equally (0.1 ml.) to 3 places of the same rats. (The third immunization).
One week after the third administration, blood samples were collected from rats and treated in substantially the same manner as described in the above item (a). The antisera thus obtained were stored at -80° C. prior to use.
Further, an inhibition test on P.C.A. reaction using the rat hyperimmuneantiserum against egg albumin was carried out in substantially the same manner as described in the above, excepting that the intravenous administration to bring about P.C.A. was carried out at 5.5 hours after the administration of the serum and antiserum. And inhibitory effect on the P.C.A. reaction was also calculated in substantially the same manner as described in the above.
as §1, §2, §3, §4, §5, §6, §7, §8

Acute toxicity in mice = details: mouse, in vivo, ip; intraperitoneal, male I.C.R. mice, survivals at one week
Experimental: Test: Acute Toxicity in Mice
A normal saline containing each of the test compound mentioned below and 0.5% carboxymethylcellulose was given intraperitoneally to male I.C.R. (Institute of Cancer Research) strain mice aged 5 weeks, weighing 33-35 g. LD50 values were calculated from the survivals of mice at one week after the administration of the test compound.

[5] = Antiallergic action (summary of tests); assay type: in vivo; details: summary statement
From the text: Test: Antiallergic Action
(2) Inhibition test of P.C.A. (Passive Cutaneous Anaphylaxis) reaction
(3) Inhibition test of anaphylactic asthma in guinea-pigs

[6] = Apomorphine-like side effect (summary of side effect tests); assay type: in vivo; details: summary statement
From the text: (i) Rotational behavior inducing action in rats unilaterally lesioned in substantia nigra,
(ii) Gnawing behavior including action in rats, and
(iii) Vomiting-inducing action in dogs

Compound	Inhibitory effect on P.C.A. reaction ([1]; intraperitoneal, 66 mg/kg)	Inhibitory effect on P.C.A. reaction ([2]; 30 mg/kg)	diuretic activity ([3]; THE MERCK INDEX EIGHTH EDITION, Page 159 (1968))	Inhibitory effect on P.C.A. reaction ([4]; intraperitoneal, 66 mg/kg)	LD50 at 168 h (Acute toxicity in mice)	antiallergic effects [5]	apomorphine-like side effect [6]	Inhibitory effect on P.C.A. reaction ([1]; intraperitoneal, 20 mg/kg)	Inhibitory effect on P.C.A. reaction ([1]; intraperitoneal, 60 mg/kg)	Inhibitory effect on P.C.A. reaction ([1]; oral, 50 mg/kg)	Inhibitory effect on P.C.A. reaction ([1]; oral, 100 mg/kg)	Inhibitory effect on P.C.A. reaction ([1]; oral, 200 mg/kg)	Inhibitory effect on P.C.A. reaction ([2]; 10 mg/kg)	adrenolytic action and antitussive properties ([3]; Chemical Abstracts Vol. 68, 94521Z (1968))	Inhibitory effect on P.C.A. reaction ([4]; intraperitoneal, 20 mg/kg)	Inhibitory effect on P.C.A. reaction ([4]; intraperitoneal, 60 mg/kg)	Inhibitory effect on P.C.A. reaction ([4]; oral, 50 mg/kg)	Inhibitory effect on P.C.A. reaction ([4]; oral, 100 mg/kg)	Inhibitory effect on P.C.A. reaction ([4]; oral, 200 mg/kg)	curariform activity ([3]; Japanese Patent Publication No. 24092/1961)
COc1cc2c(cc1O)C[C@H]1c3c(cc(O)c(OC)c3-2)CCN1C [Boldine, boldine]	40%	20%	diuretic activity	30%	145 mg/kg	much superior antiallergic effects	without apomorphine-like side effect	–	–	–	–	–	–	–	–	–	–	–	–	–
COc1cc2c(cc1OC)-c1c(OC)c(OC)cc3c1[C@H](C2)N(C)CC3 [Glaucine, glaucine]	–	60%	–	–	212 mg/kg	much superior antiallergic effects	without apomorphine-like side effect	60%	95%	70%	80%	95%	50%	adrenolytic action and antitussive properties	50%	85%	60%	80%	90%	–
COc1cc2c(cc1O)CC1c3c(cc(OC)c(OC)c3-2)CCN1C (centres unmarked) [N-methyllaurotetanine]	–	–	–	–	–	much superior antiallergic effects	without apomorphine-like side effect	–	–	–	–	–	–	–	–	–	–	–	–	curariform activity
